This is an account of results in ChEMBL document CHEMBL4483862, “Open-source discovery of chemical leads for next-generation chemoprotective antimalarials” (2018).

The assay concerns Plasmodium berghei. Description: Luciferase/luciferin-expressing antifolate-resistant parasites were used to infect a culture of HepG2 cells that were pre-incubated with compounds. Infected hepatocytes emit light due to the luciferase reaction. Assay results are presented as the percent inhibition of light emission compared to control. […]. Type of assay: functional. As to conditions: sporozoite; for pIC50: read-out: LUCIFERASE INFECTION ASSAY - IC50; for IC90: read-out: LUCIFERASE INFECTION ASSAY - IC90.

pIC50: −log10 of the molar value.

One may read the pIC50 as the IC50 on a negative log10 scale, so that one unit is a factor of ten. The term IC90 denotes the point of the concentration-response curve where the effect stands at 90%. For the compound `CSc1ccc(Cl)c(C(=O)OCC(=O)N2CCN(C(=O)c3ccco3)CC2)c1`, the pIC50 is less than 5.00 and the IC90 is greater than 10 µM.

On to `Cn1c(N)c(Sc2ccccc2[N+](=O)[O-])c(=O)n(C)c1=O`, for which the pIC50 is less than 5.00 and the IC90 was greater than 10 µM.

Regarding `FC(F)Oc1ccc(-c2cs/c(=N\c3cccnc3)n2CC2CCCO2)cc1` (stereo unspecified), the pIC50 is 5.38 and the IC90 is greater than 10 µM.

In the case of `O=C1S/C(=C\c2ccccc2)C(=O)N1CCn1cnnn1`, the pIC50 is less than 5.00 and the IC90 is greater than 10 µM.

For `O=C(CSc1cccc[n+]1[O-])Nc1ccccc1OC(F)F`, the pIC50 was less than 5.00 and the IC90 was greater than 10 µM.

As to `Cc1nn(-c2ccccc2)c2c1C(c1c[nH]c3ccccc13)N1C(=N2)C(N2CCN(c3ccc(F)cc3)CC2)=Nc2ccccc21` (stereo unspecified), the pIC50 was less than 5.00 and the IC90 was greater than 10 µM.

With `CCCCNC(=S)NN=C(c1ccccc1)c1ccccc1`, the pIC50 was less than 5.00 and the IC90 was greater than 10 µM.

For the compound `CCN(CC)S(=O)(=O)c1ccc(-c2ccc(C3NC(N)=Nc4nc5ccccc5n43)o2)cc1` (stereo unspecified), the pIC50 is less than 5.00 and the IC90 was greater than 10 µM.

Consider `CCN(c1ccccc1)S(=O)(=O)c1cc(NC(=O)CNCc2ccco2)ccc1Cl`, for which the pIC50 is less than 5.00 and the IC90 was greater than 10 µM.

In the case of `CCC/C(=N\n1c(-c2ccc(-c3ccccc3)cc2)cs/c1=N/c1c(C)n(C)n(-c2ccccc2)c1=O)c1ccccc1`, the pIC50 was less than 5.00 and the IC90 was greater than 10 µM.

Regarding `O=C(Nc1ccc(Cl)cc1C(F)(F)F)C(OC(=O)C(c1ccccc1)c1ccccc1)c1ccccc1` (stereo unspecified), the pIC50 is less than 5.00 and the IC90 was greater than 10 µM.

Regarding `COCC/N=c1\scc(-c2ccc(OC(F)F)cc2)n1/N=C/c1ccccc1Cl`, the pIC50 is less than 5.00 and the IC90 is greater than 10 µM.

With `O=C(CCN1CCN(C(c2ccccc2)c2ccccc2)CC1)NNC(=O)c1ccc(I)cc1`, the pIC50 was less than 5.00 and the IC90 is greater than 10 µM.

In the case of `C/N=c1\scc(-c2cc3ccccc3o2)n1/N=C/c1cccc(O)c1O`, the pIC50 is less than 5.00 and the IC90 was greater than 10 µM.

With `CC(C)c1ccc2c(c1)/C(=N/Nc1ccc(S(=O)(=O)Nc3ccc(Cl)cc3)cc1[N+](=O)[O-])C(=O)N2`, the pIC50 was less than 5.00 and the IC90 is greater than 10 µM.

Regarding `Cc1ccc(S(=O)(=O)c2nc(-c3ccccc3)oc2S(=O)(=O)CC(=O)NC(C)C)cc1`, the pIC50 is less than 5.00 and the IC90 is greater than 10 µM.

With `COc1ccccc1Oc1ccc(S(=O)(=O)N(c2cccnc2)S(=O)(=O)c2ccc(Oc3ccccc3OC)cc2)cc1`, the pIC50 was less than 5.00 and the IC90 was greater than 10 µM.

Consider `CN1/C(=C\C(=O)COC(=O)c2cc3ccccc3cc2O)C(C)(C)c2ccccc21`, for which the pIC50 is less than 5.00 and the IC90 is greater than 10 µM.

`Cn1ncc(C(C#N)c2nc3ccccc3s2)c(Cl)c1=O` (stereo unspecified): the pIC50 was less than 5.00 and the IC90 was greater than 10 µM.

In the case of `CC(C)(C)C1CCc2nc3ccccc3c(C(=O)OCC(=O)c3ccc(Cl)s3)c2C1` (stereo unspecified), the pIC50 was less than 5.00 and the IC90 is greater than 10 µM.

For `Cc1ccc(N2C(=O)/C(=C\c3ccc4c(c3)OCO4)N=C2SCC(=O)NCC2CCCO2)cc1` (stereo unspecified), the pIC50 is less than 5.00 and the IC90 was greater than 10 µM.

On to `C=CC/N=c1\scc(-c2ccc(Br)s2)n1/N=C/c1ccccn1`, for which the pIC50 was 5.44 and the IC90 stood at 4.27 µM.

With `Cc1nc2ccc(N/N=C(/C(=O)Nc3c(Cl)cccc3Cl)C(=O)c3ccccc3)cc2s1`, the pIC50 is 5.29 and the IC90 stood at 8.28 µM.

On to `CC1Cc2ccccc2N1C(=O)COC(=O)c1ccc([N+](=O)[O-])cc1` (stereo unspecified), for which the pIC50 was less than 5.00 and the IC90 was greater than 10 µM.

Regarding `CCN(c1ccccc1)S(=O)(=O)c1ccc(C(=O)NC2CCCc3ccccc32)cc1` (stereo unspecified), the pIC50 is less than 5.00 and the IC90 is greater than 10 µM.

Regarding `CCn1c(C)nc2cc(C(=O)NNC(=O)c3cc4c(C)nn(-c5cccc(C(F)(F)F)c5)c4s3)ccc21`, the pIC50 was less than 5.00 and the IC90 was greater than 10 µM.

For the compound `S=C(NCCc1ccc(Cl)cc1Cl)NC1CC2CCC1C2` (stereo unspecified), the pIC50 is less than 5.00 and the 90% effect concentration (IC90) is greater than 10 µM.

As to `CC(C)C1CCC(C)C(OCC(O)CN2CCN(Cc3ccc4c(c3)OCO4)CC2)C1` (stereo unspecified), the pIC50 was less than 5.00 and the IC90 is greater than 10 µM.

For `C/C(=N\NC(=O)c1ccc(COc2c(Br)cc(C)cc2Br)cc1)c1ccc(O)cc1O`, the pIC50 was 5.95 and the concentration for an effect of 90% (IC90) came to 1.28 µM.

On to `Cc1ccc(S(=O)(=O)Nc2ccc(C(=O)/C=C/c3ccc(C(C)(C)C)cc3)cc2)cc1`, for which the pIC50 is less than 5.00 and the IC90 was greater than 10 µM.

Take `S=C(NCc1ccccc1)N/N=C1/CCCCC1C1CCCCC1` (stereo unspecified): the pIC50 was less than 5.00 and the IC90 is greater than 10 µM.

For `C=CCn1c(SCC(=O)c2cc(C)n(-c3ccc(OC)cc3)c2C)nc2sc(-c3ccccc3)cc2c1=O`, the pIC50 is less than 5.00 and the IC90 is greater than 10 µM.

Take `C=CCn1c(SCC(=O)Nc2scc(-c3ccc(C(C)(C)C)cc3)c2C(=O)OCC)nc2sc3c(c2c1=O)CCC3`: the negative-log IC50 (pIC50) is less than 5.00 and the IC90 was greater than 10 µM.

For the compound `O=C(COC(=O)Cc1ccc(Cl)c(Cl)c1)Nc1ccc(OCc2ccccc2)cc1`, the pIC50 was less than 5.00 and the IC90 was greater than 10 µM.

As to `CC(C)N(C(=O)COn1nnc2ccc(S(=O)(=O)N(C)C)cc21)C(C)C`, the pIC50 is less than 5.00 and the IC90 was greater than 10 µM.

For the compound `Cc1ccc(Sc2ccc(/C=C/C(=O)c3ccc(Cl)c(Cl)c3Cl)cc2[N+](=O)[O-])cc1`, the pIC50 is less than 5.00 and the IC90 is greater than 10 µM.

`CCC(C)c1ccc(NC(=O)CN(Cc2ccccc2)S(=O)(=O)c2ccc(C)c(C)c2)cc1` (stereo unspecified): the negative-log IC50 (pIC50) is less than 5.00 and the IC90 was greater than 10 µM.

In the case of `CC1CCCC(NC(=O)CNc2cc(C(F)(F)F)ccc2Oc2ccc(Br)cc2)C1C` (stereo unspecified), the pIC50 is less than 5.00 and the IC90 was greater than 10 µM.

Regarding `Clc1ccccc1OCc1nnc(SCc2csc(-c3ccccc3)n2)o1`, the pIC50 is less than 5.00 and the IC90 is greater than 10 µM.

As to `FC(F)Sc1ccc(NC(=S)NC2CCCc3ccccc32)cc1` (stereo unspecified), the pIC50 was less than 5.00 and the IC90 is greater than 10 µM.

Turning to `CCCCCC(/C=N/NC(=O)c1ccccc1O)=C\c1ccccc1`, the pIC50 was less than 5.00 and the 90% effect concentration (IC90) was greater than 10 µM.

Turning to `COCC/N=c1\scc(-c2ccc(OC(F)F)cc2)n1/N=C/c1ccccc1F`, the pIC50 was less than 5.00 and the 90% effect concentration (IC90) was greater than 10 µM.

Turning to `C=C(C)C/N=c1\scc(-c2ccccc2F)n1/N=C1\CCCCc2ccccc21`, the pIC50 is less than 5.00 and the IC90 was greater than 10 µM.

`N#C/C(=C\c1ccc(N(c2ccccc2)c2ccccc2)cc1)C(=O)Nc1nccs1`: the pIC50 was 6.28 and the IC90 amounted to 1.79 µM.

Turning to `CCCCCCC(/C=N/NC(=O)c1ccccc1O)=C\c1ccccc1`, the pIC50 was less than 5.00 and the IC90 is greater than 10 µM.

With `Cc1cccc(C)c1NC(=O)CSc1nc(=O)c2c(C)c(-c3ccccc3)sc2[nH]1`, the pIC50 is less than 5.00 and the IC90 was greater than 10 µM.

As for `COc1cc(/C=C/C(=O)c2ccc(Cl)c([N+](=O)[O-])c2)ccc1OC(F)F`, the pIC50 was less than 5.00 and the IC90 is greater than 10 µM.

On to `CCOC(=O)c1c(C)[nH]c(C(=O)CSc2nnc(C3COc4ccccc4O3)n2-c2ccccc2)c1C` (stereo unspecified), for which the pIC50 was less than 5.00 and the IC90 is greater than 10 µM.
